Assay results taken from patent US5871779A, “Treatment of arthropathies with vanadate compounds or analogues thereof” (Mount Sinai Hospital Corporation, priority 1996, dated 1999).

Columns and labels:
KB8, KB8-5 and KB85-11 = conditions: stated as background; cited from earlier work
P388 (ADR) = experiment: MTT cytotoxicity assay, P388 (ADR); assay type: cell-based, murine; conditions: Mus musculus, P388/ADR, 72 h, read-out: IC50 Value
Procedure: (§1) The relative cytotoxicity of various compounds on tumor cell lines was investigated as follows. Cytotoxicity was measured by the MTT microculture tetrazolium colorimetric assay for all cell lines. The relative cytotoxicity of Na3 VO4 and VOSO4 was investigated using the following tumor cell lines: P388(WT) murine leukemia, P388 (ADR) murine leukemia, Lewis murine lung, MCF7 (WT) human breast, […] human lung, K562 human erythroleukemia, A431 human epidermal, LS180 human colon and SK-OV-3 human ovarian. The relative cytotoxicity of doxorubicin, Na3 VO4 and VOSO4 was investigated using the following tumor cell lines: P388(WT) murine leukemia, P388 (ADR) murine leukemia, MCF7(WT) human breast and MCF7 (ADR) human breast. The relative cytotoxicity of BMOV, BEOV and naglivan was investigated using the following tumor cell lines: P388(WT) murine leukemia, P388 (ADR) murine leukemia, Lewis murine lung, H460 human lung, K562 human erythroleukemia, and SK-OV-3 human ovarian.
(§2) The cells were plated (number of cells/well was different from cell line to cell depending on the dividing rate) in a 96-well microculture plate 24 hours prior to the delivery of the vanadium compounds. Serial concentrations of solutions of the test compounds (0.05-100 μM) were delivered to the corresponding wells. A blank column (without cells) and a control column (with cells without vanadium) were left. The cells were incubated for 72 hours continuously. An MTT solution was added to each well after this incubation period and the cells were incubated for 4 more hours for the completion of the dyeing process. The medium was removed find DMSO was added to each well. The absorbance of each well was read with a Titertek Multiskan (310C) spectrophotometer at 570 nm. The percentage of the absorbance of each vanadium concentration relative to the control calculated and the value of the 50% growth inhibition concentration (IC50) was obtained from the % control versus concentration plot. Each assay was repeated three times and the reported IC50 values were the mean of these three runs.

MCF7 (WT) = experiment: MTT cytotoxicity assay, MCF7 (WT); assay type: cell-based, human; conditions: Homo sapiens, MCF7, 72 h, read-out: IC50 Value
Procedure: as §1, §2

P388 (WT) = experiment: MTT cytotoxicity assay, P388 (WT); assay type: cell-based, murine; conditions: Mus musculus, P388, 72 h, read-out: IC50 Value
Procedure: as §1, §2

MCF7 (ADR) = experiment: MTT cytotoxicity assay, MCF7 (ADR); assay type: cell-based, human; conditions: Homo sapiens, NCI/ADR-RES, 72 h, read-out: IC50 Value
Procedure: as §1, §2

**Q.** With COc1cc2c(c(OC)c1OC)-c1ccc(OC)c(=O)cc1[C@@H](NC(C)=O)CC2 [colchicine] as the molecule, how does the “killing of drug resistant cell lines by conventional chemotherapeutic agents” value (“killing of drug resistant cell lines” for short) (KB8, KB8-5 and KB85-11) read?
**A.** The value was “not killed”.

**Q.** Which “killing of drug resistant cell lines” value (KB8, KB8-5 and KB85-11) does the source give for COc1cccc2c1C(=O)c1c(O)c3c(c(O)c1C2=O)C[C@@](O)(C(=O)CO)C[C@@H]3O[C@H]1C[C@H](N)[C@H](O)[C@H](C)O1 [doxorubicin, reference compound] here?
**A.** Its value is “not killed”.

**Q.** And the IC50 (P388 (ADR))?
**A.** Its IC50 is 3770 nM.

**Q.** What about the IC50 (MCF7 (WT)) of the same molecule?
**A.** The IC50 was 492 nM.

**Q.** What about the IC50 (P388 (WT)) of the same molecule?
**A.** The IC50 was 23 nM.

**Q.** What about the IC50 (MCF7 (ADR)) of the same molecule?
**A.** The IC50 was 25700 nM.

**Q.** Which “killing of drug resistant cell lines” value (KB8, KB8-5 and KB85-11) does the source give for CC[C@]1(O)C[C@@H]2CN(CCc3c([nH]c4ccccc34)[C@@](C(=O)OC)(c3cc4c(cc3OC)N(C)[C@H]3[C@@](O)(C(=O)OC)[C@H](OC(C)=O)[C@]5(CC)C=CCN6CC[C@]43[C@@H]65)C2)C1 [vinblastine] here?
**A.** The value was “not killed”.
